Read-outs that look alike come from different tables or passages of the source.
How the values were obtained:
Calf Thymus DNA = test: UV-Visible spectrophotometric titration; format: binding; conditions: PND 22.8 μM, Tris/HCl buffer, CT DNA additions
Procedure: UV-Visible measurements were taken in a Varian Cary 100 spectrophotometer. Calf Thymus (CT) DNA and buffers were purchased from Sigma Aldrich. The binding constant of PND with CT DNA was determined by absorption titration at room temperature through stepwise addition of a CT DNA solution (10.1 mM; 5 μL additions) in buffer (5 mM Tris/HCl, 50 mM NaCl, pH=7.39) over a 2 mL working solution of PND (22.8 μM) in the same buffer. Absorption spectra were recorded at 424 nm and the titration was terminated when saturation was reached. In order to determine the binding affinity, the data was fitted to the Scatchard equation r/Cf=K(n−r) (McGhee and von Hippel plots), where r is the number of moles of PND bound to 1 mol of CT DNA, n is the number of equivalent binding sites, and K is the affinity of the complex for those binding sites. Concentrations of free (Cf) and bound (Cb) complexes were calculated from Cf=C(1−α) and Cb=C−Cf, respectively, where C is the total PND concentration. The fraction of the bound complex (α) was calculated from α=(Af−A)/(Af−Ab), where Af and Ab are the absorbances of the free and fully bound drug at the selected wavelengths, and A is the absorbance at any given point during the titration. The plot of r/Cf vs. r gives the binding constant Kb as the slope of the graph. All experiments were performed in triplicate and values of Kb were averaged.

MDA-MB-231 cells = test: Differential Nuclear Staining (DNS) cytotoxicity assay; format: cell-based
Text: (§1) In this study, 19 human cell lines were utilized: seven breast human cancer; MDA-MB-468, MCF-7, T47D, HCC1419, HCC70, MDA-MB-231 (triple negative) and its lung metastatic (LM) derivative MDA-MB-231 LM2; four human leukemia/lymphoma cells, HL-60, Ramos, Jurkat and CEM, three human ovarian cancer, Ovcar 8, Ovcar 5 and Ovcar 3, one lung cancer, one melanoma and one pancreatic cell line, A549, A375, Panc-1 respectively. Furthermore, for selectivity/comparative purposes, the cell lines from the non-cancerous origin, MCF-10A, HS-27 were also included. The culture media used for MDA-MB-231, MDA-MB-231 LM2, MDA-MB-468, MCF-7, A549, A375, Panc-1, and HS-27 was DMEM (Hyclone, Logan UT), whereas for T47D, HCC-1419, HCC-70, HL-60, Ramos, Jurkat, CEM, Ovcar 8 and Ovcar 5 was RPMI-1640 (Hyclone, Logan UT). Consistently, both DMEM and RPMI culture media was supplemented with 10% heat-inactivated fetal bovine serum (FBS: Hyclone), 100 U/ml penicillin and 100 μg/ml streptomycin (Thermo Fisher Scientific Inc., Rockford, IL). The MCF-10A cells were grown in DMEM/F12 supplemented with 10% FBS, 10 μg/ml recombinant human insulin (Sigma), 0.5 μg/ml hydrocortisone (Sigma), 20 ng/ml epidermal growth factor, 2.5 mM L-glutamine, 100 U/ml penicillin, and 100 μg/ml streptomycin. Also, a slight modification of the culture media to the HL-60 and Ovcar 3 cell lines was that 20% of FBS was added to the media (ATCC, Manassas, VA, USA). In addition, Ovcar 3 cells required 10 μg/ml recombinant human insulin (Sigma). The adherent cells, growing in the logarithmic growth phase at a 60-75% confluence, were detached by utilizing a HyQtase enzyme (Thermo Fisher Scientific Inc.), counted and seeded in 96-well plates at 10,000 cells density in 100 μL of culture medium per well. Cells growing in suspension were processed similarly as described above except for the addition of HyQtase. Typically, the incubation conditions of all the cells were at 37° C. in a 5% CO2 humidified atmosphere.
(§2) To analyze the potential cytotoxic activity of PND, the Differential Nuclear Staining (DNS) assay, which was validated for high-throughput screening (HTS) using live-cell bio-imaging was utilized. For this assay, cells were seeded at 10,000 cells/well density in a 96-well plate in 100 μl of culture media, incubated overnight, and treated with a gradient of PND concentrations for 72 h. Two hours before imaging, two fluorescent nucleic acid intercalators were added to each well, Hoechst 33342 and propidium iodide (PI; Invitrogen); at a final concentration of 1 μg/ml each. Due to its high permeability, Hoechst stains all of the cells (total dead and alive), whereas PI only stains dead or dying cells. Montages of 2 by 2 images were captured directly from each individual well of the culture plates by using a multi-well plate reader IN Cell 2000 analyzer, an HTS and high-content analysis (HCA) system (GE Healthcare Life Sciences, Pittsburgh, PA). The following controls were included in every single plate: PBS as solvent/vehicle control, hydrogen peroxide as a positive control for cytotoxicity, and untreated cells to determine the background of toxicity due to cell manipulation and intrinsic factors usually associated with the culture protocol. Each experimental data point, as well as controls, were assessed in triplicates. Cytotoxic concentration 50% (CC50) values were calculated based on a linear interpolation equation. CC50 is defined as the PND concentration required to disrupt the plasma membrane integrity of 50% of the cell population, as compared with solvent-treated cells.
(§3) The selective cytotoxicity index (SCI) denotes the capability of a given experimental compound to kill cancer cells more efficiently while inflicting minimal toxicity to non-cancerous origin cells. Thus, the SCI for PND was calculated as follow: SCI=CC50 of non-cancerous cells/CC50 of cancer cells.

[1] = as above; format: cell-based; conditions: human; for selectivity ratio at 72 h: read-out: selective cytotoxicity index (SCI)
Text: as §1, §2, §3

HL-60 cells = test: as above; format: cell-based
Text: as §1, §2, §3

For `COC1=CC=C2Nc3cc(Cl)ccc3C(N=C3C=C(CN4CCCC4)C(=O)C(CN4CCCC4)=C3)=C2N1` [PND, 4-[(7-chloro-2-methoxy-1,5-dihydrobenzo[b][1,5]naphthyridin-10-yl)imino]-2,6-bis(pyrrolidin-1-ylmethyl)cyclohexa-2,5-dien-1-one], the “hypochromic effect at 424 nm” value (Calf Thymus DNA) was 39%, the “red-shift of absorbance maximum at 424 nm” value (Calf Thymus DNA) was 8 nm and the “selective cytotoxicity index (SCI)” value (MDA-MB-231 cells; CC50 of non-cancerous MCF-10A / CC50 of MDA-MB-231) was 4.13. It also gave a CC50 (MDA-MB-231 cells; Homo sapiens, MDA-MB-231, 72 h, DNS assay) of 1600 nM, a selectivity ratio at 72 h ([1]; HL-60) of 3.5 and a selectivity ratio at 72 h ([1]; MCF-7 cells against non-cancerous MCF-10A cells, vs MCF-10A) of 4.13. It also gave a CC50 at 72 h ([1]; MCF-10A non-cancerous cells) of 6600 nM, a selectivity ratio at 72 h ([1]; MDA-MB-231 LM2 cells against non-cancerous MCF-10A cells, vs MCF-10A) of 2.54 and a selectivity ratio at 72 h ([1]; MDA-MB-231 cells against non-cancerous MCF-10A cells, CC50 of non-cancerous MCF-10A / CC50 of MDA-MB-231) greater than 3. It also gave a selectivity ratio at 72 h ([1]; MDA-MB-468 cells against non-cancerous MCF-10A cells, vs MCF-10A) of 3.88, a selectivity ratio at 72 h ([1]; T47D cells (against non-cancerous cells, line not specified)) of less than 1 and a selectivity ratio at 72 h ([1]; HCC-70) of less than 1. The selectivity ratio at 72 h ([1]; Jurkat) was 3.3, the selectivity ratio at 72 h ([1]; Ramos) was 3 and the selectivity ratio at 72 h ([1]; lung cancer line) was less than 2. For the same molecule, the selectivity ratio at 72 h ([1]; melanoma cell line) was 3.2, the selectivity ratio at 72 h ([1]; pancreatic cancer line) was less than 2 and the selectivity ratio at 72 h ([1]; two of the three ovarian cancer lines) was 3.9. For the same molecule, the “selective cytotoxicity index (SCI)” value (HL-60 cells) was greater than 3 and the CC50 (HL-60 cells; Homo sapiens, 72 h, DNS assay) was 1900 nM.
